Laboratory results: patent US20190008154A1 (priority 2015, published 2019)
Values joined by “and” are separate entries in the source; they are usually repeats but may differ in a detail not shown here. Equal values may be shown once.

Test system: P[…] (PYRIOR)
Design: species or system Pyricularia oryzae
Details: in vivo

Cc1cccc2sc3nncn3c12 [TCA, 5-methyl-1,2,4-triazolo[3,4-b][1,3]benzothiazole]
PYRIOR (% DC) Observed: 100% and 95% and 50.2%
